Assay results published in PubChem BioAssay AID1963961 (Molecular Pharmacology Branch, DTP, NCI, 2024).
Several values for one entry are separate records, joined by “and”; a condition that tells them apart may be missing. Equal values may be shown once.

System: K98450-129-R-PDC multicell spheroids, viability
Experiment: Anticancer human tumor K98450-129-R-PDC patient-derived colon adenocarcinoma cell line growth inhibition [PI3K]
Details: for viability, T/C: stronger effect = lower value
Outline: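 Spheroid viability read-out. Co-cultures contained the tumor line plus HUVEC and human MSCs. Each agent was paired with a PI3K inhibitor (inavolisib, alpelisib, duvelisib, copanlisib) across half-log dilutions starting at clinical Cmax, or at 10 microM when Cmax was unknown.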

[1] = curve of first compound, second compound 0.00316 µM
[2] = curve of first compound, second compound 0.01 µM
[3] = curve of first compound, second compound 0.0316 µM
[4] = curve of first compound, second compound 0.1 µM
[5] = curve of first compound, second compound 0.316 µM
[6] = curve of first compound, second compound 1 µM
[7] = second compound 0.00316 µM, first compound 0.0316 µM
[8] = second compound 0.00316 µM, first compound 0.1 µM
[9] = second compound 0.00316 µM, first compound 0.316 µM
[10] = second compound 0.00316 µM, first compound 1 µM
[11] = second compound 0.00316 µM, first compound 3.16 µM
[12] = second compound 0.00316 µM, first compound 10 µM
[13] = second compound 0.01 µM, first compound 0.0316 µM
[14] = second compound 0.01 µM, first compound 0.1 µM
[15] = second compound 0.01 µM, first compound 0.316 µM
[16] = second compound 0.01 µM, first compound 1 µM
[17] = second compound 0.01 µM, first compound 3.16 µM
[18] = second compound 0.01 µM, first compound 10 µM
[19] = second compound 0.0316 µM, first compound 0.0316 µM
[20] = second compound 0.0316 µM, first compound 0.1 µM
[21] = second compound 0.0316 µM, first compound 0.316 µM
[22] = second compound 0.0316 µM, first compound 1 µM
[23] = second compound 0.0316 µM, first compound 3.16 µM
[24] = second compound 0.0316 µM, first compound 10 µM
[25] = second compound 0.1 µM, first compound 0.0316 µM
[26] = second compound 0.1 µM, first compound 0.1 µM
[27] = second compound 0.1 µM, first compound 0.316 µM
[28] = second compound 0.1 µM, first compound 1 µM
[29] = second compound 0.1 µM, first compound 3.16 µM
[30] = second compound 0.1 µM, first compound 10 µM
[31] = second compound 0.316 µM, first compound 0.0316 µM
[32] = second compound 0.316 µM, first compound 0.1 µM
[33] = second compound 0.316 µM, first compound 0.316 µM
[34] = second compound 0.316 µM, first compound 1 µM
[35] = second compound 0.316 µM, first compound 3.16 µM
[36] = second compound 0.316 µM, first compound 10 µM
[37] = second compound 1 µM, first compound 0.0316 µM
[38] = second compound 1 µM, first compound 0.1 µM
[39] = second compound 1 µM, first compound 0.316 µM
[40] = second compound 1 µM, first compound 1 µM
[41] = second compound 1 µM, first compound 3.16 µM
[42] = second compound 1 µM, first compound 10 µM
[43] = second compound 0.0316 µM, first compound 0.00316 µM
[44] = second compound 0.0316 µM, first compound 0.01 µM
[45] = second compound 0.1 µM, first compound 0.00316 µM
[46] = second compound 0.1 µM, first compound 0.01 µM
[47] = second compound 0.316 µM, first compound 0.00316 µM
[48] = second compound 0.316 µM, first compound 0.01 µM
[49] = second compound 1 µM, first compound 0.00316 µM
[50] = second compound 1 µM, first compound 0.01 µM
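Also: spheroids exposed to agents for seven days before read-out.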

CC1(C)CCC(CN2CCN(c3ccc(C(=O)NS(=O)(=O)c4ccc(NCC5CCOCC5)c([N+](=O)[O-])c4)c(Oc4cnc5[nH]ccc5c4)c3)CC2)=C(c2ccc(Cl)cc2)C1 + COc1c(OCCCN2CCOCC2)ccc2c3n(c(=NC(=O)c4cnc(N)nc4)nc12)CCN3
IC50 [1]: > 10000 nM | IC50 [2]: > 10000 nM | IC50 [3]: > 10000 nM | IC50 [4]: > 10000 nM | IC50 [5]: > 10000 nM | IC50 [6]: > 10000 nM | viability, T/C [7]: 94.9% | viability, T/C [8]: 112% | viability, T/C [9]: 107% | viability, T/C [10]: 96.1% | viability, T/C [11]: 93.7% | viability, T/C [12]: 97.1% | viability, T/C [13]: 125% | viability, T/C [14]: 111% | viability, T/C [15]: 119% | viability, T/C [16]: 104% | viability, T/C [17]: 95.7% | viability, T/C [18]: 86% | viability, T/C [19]: 101% | viability, T/C [20]: 96.3% | viability, T/C [21]: 104% | viability, T/C [22]: 99.6% | viability, T/C [23]: 96.8% | viability, T/C [24]: 85.1% | viability, T/C [25]: 72.8% | viability, T/C [26]: 76.8% | viability, T/C [27]: 91.2% | viability, T/C [28]: 90.5% | viability, T/C [29]: 80.4% | viability, T/C [30]: 72.7% | viability, T/C [31]: 60% | viability, T/C [32]: 48% | viability, T/C [33]: 75.6% | viability, T/C [34]: 60.6% | viability, T/C [35]: 53.5% | viability, T/C [36]: 55.2% | viability, T/C [37]: 49.1% | viability, T/C [38]: 49.6% | viability, T/C [39]: 59.6% | viability, T/C [40]: 54.6% | viability, T/C [41]: 41.4% | viability, T/C [42]: 54.2%

COc1c(OCCCN2CCOCC2)ccc2c3n(c(=NC(=O)c4cnc(N)nc4)nc12)CCN3
viability, T/C (compound 0.00316 µM): 97.8% [middle of 8 runs] | viability, T/C (compound 0.01 µM): 101% [middle of 8 runs] | viability, T/C (compound 0.0316 µM): 97.6% [middle of 8 runs] | viability, T/C (compound 0.1 µM): 77.9% [middle of 8 runs] | viability, T/C (compound 0.316 µM): 65.8% [middle of 8 runs] | viability, T/C (compound 1 µM): 54.2% [middle of 8 runs] | IC50 (compound alone, run of 04/25/2023): > 1000 nM

CC(C)n1nc(-c2ccc3oc(N)nc3c2)c2c(N)ncnc21 + Cc1nc(NC(=O)N2CCCC2C(N)=O)sc1-c1ccnc(C(C)(C)C(F)(F)F)c1
IC50 [3]: > 100 nM | IC50 [4]: > 100 nM | IC50 [5]: > 100 nM | IC50 [6]: > 100 nM | IC50 (curve of first compound, second compound 3.16 µM): > 100 nM | IC50 (curve of first compound, second compound 10 µM): > 100 nM | viability, T/C (second compound 0.0316 µM, first compound 0.000316 µM): 102% | viability, T/C (second compound 0.0316 µM, first compound 0.001 µM): 97.8% | viability, T/C [43]: 101% | viability, T/C [44]: 91.2% | viability, T/C [19]: 87.2% | viability, T/C [20]: 75.3% | viability, T/C (second compound 0.1 µM, first compound 0.000316 µM): 106% | viability, T/C (second compound 0.1 µM, first compound 0.001 µM): 95.3% | viability, T/C [45]: 99.5% | viability, T/C [46]: 91% | viability, T/C [25]: 88.8% | viability, T/C [26]: 79.9% | viability, T/C (second compound 0.316 µM, first compound 0.000316 µM): 95.8% | viability, T/C (second compound 0.316 µM, first compound 0.001 µM): 99.5% | viability, T/C [47]: 89.2% | viability, T/C [48]: 90.2% | viability, T/C [31]: 86.4% | viability, T/C [32]: 72.3% | viability, T/C (second compound 1 µM, first compound 0.000316 µM): 88.6% | viability, T/C (second compound 1 µM, first compound 0.001 µM): 89.5% | viability, T/C [49]: 92.8% | viability, T/C [50]: 80.2% | viability, T/C [37]: 81.9% | viability, T/C [38]: 70% | viability, T/C (second compound 3.16 µM, first compound 0.000316 µM): 79.4% | viability, T/C (second compound 3.16 µM, first compound 0.001 µM): 78% | viability, T/C (second compound 3.16 µM, first compound 0.00316 µM): 79.5% | viability, T/C (second compound 3.16 µM, first compound 0.01 µM): 70.8% | viability, T/C (second compound 3.16 µM, first compound 0.0316 µM): 77.9% | viability, T/C (second compound 3.16 µM, first compound 0.1 µM): 61.2% | viability, T/C (second compound 10 µM, first compound 0.000316 µM): 66.1% | viability, T/C (second compound 10 µM, first compound 0.001 µM): 70.9% | viability, T/C (second compound 10 µM, first compound 0.00316 µM): 69.8% | viability, T/C (second compound 10 µM, first compound 0.01 µM): 71.9% | viability, T/C (second compound 10 µM, first compound 0.0316 µM): 64.3% | viability, T/C (second compound 10 µM, first compound 0.1 µM): 59.2%

CCN1CCN(Cc2ccc(Nc3ncc(F)c(-c4cc(F)c5nc(C)n(C(C)C)c5c4)n3)nc2)CC1 + CC(Nc1ccc2c(c1)OCCn1cc(N3C(=O)OCC3C(F)F)nc1-2)C(N)=O
IC50 [1]: > 1000 nM | IC50 [2]: > 1000 nM | IC50 [3]: > 1000 nM | IC50 [4]: > 1000 nM | IC50 [5]: > 1000 nM | IC50 [6]: > 1000 nM | viability, T/C (second compound 0.00316 µM, first compound 0.00316 µM): 105% | viability, T/C (second compound 0.00316 µM, first compound 0.01 µM): 92.2% | viability, T/C [7]: 104% | viability, T/C [8]: 90.3% | viability, T/C [9]: 81% | viability, T/C [10]: 82.9% | viability, T/C (second compound 0.01 µM, first compound 0.00316 µM): 117% | viability, T/C (second compound 0.01 µM, first compound 0.01 µM): 90.5% | viability, T/C [13]: 98.7% | viability, T/C [14]: 92.3% | viability, T/C [15]: 84.9% | viability, T/C [16]: 86.9% | viability, T/C [43]: 109% | viability, T/C [44]: 100% | viability, T/C [19]: 93.8% | viability, T/C [20]: 89.9% | viability, T/C [21]: 94.5% | viability, T/C [22]: 92.6% | viability, T/C [45]: 92.9% | viability, T/C [46]: 96.8% | viability, T/C [25]: 97.4% | viability, T/C [26]: 85.5% | viability, T/C [27]: 83.7% | viability, T/C [28]: 82.8% | viability, T/C [47]: 90.6% | viability, T/C [48]: 98.3% | viability, T/C [31]: 95.7% | viability, T/C [32]: 86.5% | viability, T/C [33]: 85.4% | viability, T/C [34]: 79.3% | viability, T/C [49]: 90.5% | viability, T/C [50]: 88% | viability, T/C [37]: 86.8% | viability, T/C [38]: 82.3% | viability, T/C [39]: 83.9% | viability, T/C [40]: 81.6%

CC(=O)c1c(C)c2cnc(Nc3ccc(N4CCNCC4)cn3)nc2n(C2CCCC2)c1=O
viability, T/C (compound 0.000316 µM): 105% [middle of 4 runs] | viability, T/C (compound 0.001 µM): 106% [middle of 4 runs] | viability, T/C (compound 0.00316 µM): 104% [middle of 4 runs] | viability, T/C (compound 0.01 µM): 104% (2×) and 102% and 99.6% | viability, T/C (compound 0.0316 µM): 101% [middle of 4 runs] | viability, T/C (compound 0.1 µM): 95.5% [middle of 4 runs] | IC50 (curve of compound): > 100 nM

CC(C)NCC(C(=O)N1CCN(c2ncnc3c2C(C)CC3O)CC1)c1ccc(Cl)cc1 (configuration not stated) + CC(Nc1ccc2c(c1)OCCn1cc(N3C(=O)OCC3C(F)F)nc1-2)C(N)=O
IC50 [1]: > 10000 nM | IC50 [2]: > 10000 nM | IC50 [3]: > 10000 nM | IC50 [4]: > 10000 nM | IC50 [5]: > 10000 nM | IC50 [6]: > 10000 nM | viability, T/C [7]: 111% | viability, T/C [8]: 98% | viability, T/C [9]: 101% | viability, T/C [10]: 101% | viability, T/C [11]: 109% | viability, T/C [12]: 98.4% | viability, T/C [13]: 115% | viability, T/C [14]: 96.1% | viability, T/C [15]: 105% | viability, T/C [16]: 98.1% | viability, T/C [17]: 104% | viability, T/C [18]: 102% | viability, T/C [19]: 109% | viability, T/C [20]: 104% | viability, T/C [21]: 98.9% | viability, T/C [22]: 101% | viability, T/C [23]: 109% | viability, T/C [24]: 96.9% | viability, T/C [25]: 96.2% | viability, T/C [26]: 91.7% | viability, T/C [27]: 101% | viability, T/C [28]: 102% | viability, T/C [29]: 101% | viability, T/C [30]: 96.2% | viability, T/C [31]: 91% | viability, T/C [32]: 90.5% | viability, T/C [33]: 100% | viability, T/C [34]: 99.2% | viability, T/C [35]: 111% | viability, T/C [36]: 94.2% | viability, T/C [37]: 85.2% | viability, T/C [38]: 85.4% | viability, T/C [39]: 96.8% | viability, T/C [40]: 94.1% | viability, T/C [41]: 100% | viability, T/C [42]: 95.2%
